The numbers were not newly measured in patent publication US20200338016A1, “COMBINATION BROAD-SPECTRUM ANTIBIOTIC PREPARATIONS FOR DRUG-RESISTANT PATHOGENS” (priority 2019, published 2020), which cites them from elsewhere.

The test system of the data set is Mycobacterim tuberculosis. The following applies: ten strains of Mycobacterim tuberculosis, including six resistant to antibiotics.
As to `O=C(O[C@@H]1Cc2c(O)cc(O)cc2O[C@@H]1c1cc(O)c(O)c(O)c1)c1cc(O)c(O)c(O)c1` [EGCG, epigallocatechin gallate], the concentration that kills is listed as 1024 micrograms per milliliter.

Consider `O=C(O)/C=C/c1ccc(O)c(O)c1` [caffeic acid], for which the concentration that kills is listed as 1024 micrograms per milliliter.

For `O=c1c(O)c(-c2ccc(O)c(O)c2)oc2cc(O)cc(O)c12` [quercetin], the concentration that kills is on record as 1024 micrograms per milliliter.
